Assay [1] has as its system E. coli/pET-22b (Control). Description: Disk diffusion assay. The class given is cell-based, E. coli BL21 Rosetta (DE3). The note with it: Escherichia coli, 37 °C, 24 hr, read-out: inhibition zones. How it is done:
The E. coli BL21 Rosetta (DE3) strains containing pET22b, and its carrying cph, cph001, cph002, cph003, aph(3′)-Ia, and mphB plasmids were cultured overnight. The cells, respectively, were then diluted to 0.1 OD600 in molten LB agar with 100 μg/mL ampicillin and 500 μM IPTG for the disk diffusion assay. The cells with ampicillin and IPTG were mixed well with molten LB agar and then poured into 10 cm diameter Petri dishes. […] The Petri dishes were placed in the incubator at 37 °C and the inhibition zones were observed after 24 hr.
(In agar diffusion tests the substance spreads into inoculated agar from a disc or well.)

Assay [2] relates to E. coli/cph001. The assay is described as follows: Disk diffusion assay. The class given is cell-based, E. coli BL21 Rosetta (DE3). How it is done:
(§1) The E. coli BL21 Rosetta (DE3) strains containing pET22b, and its carrying cph, cph001, cph002, cph003, aph(3′)-Ia, and mphB plasmids were cultured overnight. The cells, respectively, were then diluted to 0.1 OD600 in molten LB agar with 100 μg/mL ampicillin and 500 μM IPTG for the disk diffusion assay. The cells with ampicillin and IPTG were mixed well with molten LB agar and then poured into 10 cm diameter Petri dishes. The 7 mm disks were placed onto the LB agar and gently loaded with varying quantities of CMN IIA, CMN IIB, VIO, Kan, and Ery, ranging from 0 to 200 μg. The Petri dishes were placed in the incubator at 37 °C and the inhibition zones were observed after 24 hr.

Assay [3] concerns E. coli/cph. The assay is described as follows: Disk diffusion assay. The settings on record: Escherichia coli, 24 h, read-out: inhibition zones. In kind it is cell-based, E. coli BL21 Rosetta (DE3). How it is done: as §1
The subject of assay [4] is Cph001. Description: Coupled enzyme assay and Michaelis-Menten kinetics of Cph001. In kind it is biochemical, Streptosporangium roseum. The settings on record: 2 mM antibiotic substrate, ATP as phosphate donor; absorbance at 340 nm. How it is done:
The phosphorylation reaction was measured by a coupled enzyme assay as following. […] The reactions were mixed well in a final volume of 200 μL in 96-well plates. The Cph001 activity was assayed by determining the oxidation of NADH at 340 nm. The reaction buffer and enzyme concentration of the Cph reaction was followed by previous study. The 340 nm absorbance changes were detected at 30 °C for every 1 min at a time in 15 min on an EPOCH Microplate Reader (BioTek). All reactions were carried out in triplicate.
The initial velocity data were plotted against substrate concentrations and fit the Michaelis-Menten equation. The Km and Vmax values were calculated based on the Michaelis-Menten equation. GraphPad Prism was used for statistical data analysis. All reactions were carried out in triplicate.

Assay [5] deals with T1, Cph001 (Streptosporangium roseum, UniProt D2B3F1).
T1 sequence (D2B3F1 1-286): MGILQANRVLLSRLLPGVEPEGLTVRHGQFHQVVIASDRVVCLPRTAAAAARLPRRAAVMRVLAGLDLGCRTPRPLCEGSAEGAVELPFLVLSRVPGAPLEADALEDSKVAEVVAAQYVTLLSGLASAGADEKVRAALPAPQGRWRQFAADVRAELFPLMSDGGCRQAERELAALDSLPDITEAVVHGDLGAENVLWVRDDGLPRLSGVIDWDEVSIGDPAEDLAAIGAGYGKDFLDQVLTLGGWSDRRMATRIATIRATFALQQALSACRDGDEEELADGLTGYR
Description: Isothermal titration calorimetry (ITC) analysis of Cph001. In kind it is binding. For orientation: Isothermal titration calorimetry measures the heat released or taken up as one component is titrated into another.
Description: The integrated heat areas constitute a differential binding curve that was fitted with a standard single-site binding model by Origin 7.

The target of assay [6] is Cph. The arrangement: method as in ACS Chem. Biol. 17, 138, 2022. The settings on record: ITC; ref ACS Chem. Biol. 17, 138, 2022; read-out: KD values for Cph interaction; cited from earlier work.
[7] abbreviates: Escherichia coli, 24 h, read-out: inhibition zones.

Consider one compound from article PMC10730852 (Communications Biology, 2023).

For orientation: Kd means the concentration at which binding is half-saturated.

With `C[C@@H]1NC(=O)[C@@H](N)CNC(=O)[C@H](C2CCNC(=N)N2)NC(=O)/C(=C/NC(N)=O)NC(=O)[C@H](CNC(=O)C[C@@H](N)CCCN)NC1=O` (stereo partly drawn) [CMN IIB], the figures for the zone of inhibition at 12.5 µg/disc in assay [1] (12.5 μg on disk) and in assay [2] (setting [7]) were 17 mm and 11 mm, respectively. For the same compound, the zone of inhibition at 50 µg/disc in assay [1] (50 μg on disk) is 23 mm; in assay [2] (setting [7]), 14 mm; in assay [3] it was 12 mm. For the same compound, the zone of inhibition at 100 µg/disc in assay [1] (100 μg on disk) was determined as 25 mm; in assay [2] (setting [7]), 16 mm; in assay [3] it was 14 mm. Besides, the zone of inhibition at 200 µg/disc in assay [1] (200 μg on disk) was found to be 27 mm; in assay [2] (setting [7]) it was 17.5 mm; in assay [3], 16 mm. Besides, in assay [2] (E. coli harboring cph001), the “resistance in disk diffusion assay” value was “capable of endowing E. coli with resistance”. The “phosphorylation by Cph001 in couple enzyme assay” value in assay [4] is recorded as “incapable of phosphorylating”. The values for the Kd in assay [5] and in assay [6] were 55.2 ± 4.4 µM and 5.48 µM, respectively.
